Target: T1, human GPR139 (Homo sapiens, UniProt Q6DWJ6)
T1 construct: expressed in transfected cells; host or cells: CHO-TREx (Life Technologies) cells, expression induced with doxycycline
T1 sequence (Q6DWJ6 1-353): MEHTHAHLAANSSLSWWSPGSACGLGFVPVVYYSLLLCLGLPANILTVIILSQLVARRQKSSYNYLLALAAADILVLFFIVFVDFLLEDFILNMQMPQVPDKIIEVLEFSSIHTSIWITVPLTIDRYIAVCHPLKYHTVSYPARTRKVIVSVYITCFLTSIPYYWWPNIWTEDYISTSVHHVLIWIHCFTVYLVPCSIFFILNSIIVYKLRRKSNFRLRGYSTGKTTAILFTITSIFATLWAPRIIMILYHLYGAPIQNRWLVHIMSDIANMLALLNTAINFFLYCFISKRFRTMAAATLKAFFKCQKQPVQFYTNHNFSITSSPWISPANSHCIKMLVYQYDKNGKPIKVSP
Experiment: Inhibition rate of the amount of IP1 in GPR139-expressed CHO cells (inverse agonist assay, Test Example 2)
Type: cell-based
Conditions: relative value, inhibition rate of Example Compound 2 in Test Example 1 defined as 100%; for inhibition at 30 µM: CHO
In short: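 CHO-TREx cells with doxycycline-inducible human GPR139 (2 μg/mL, 17 h) were incubated with compound at 2000 cells/well for 40 min at 37° C. IP1 quantified by HTRF (665/615 nm ratio ×10000); inhibition rate expressed relative to a reference compound defined as […].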

`CCn1cc(Cn2ccn(-c3cc(-c4ccc(F)cc4)cc(C4CC4(F)F)c3F)c2=O)cn1` (centres unmarked) [Example 145, 1-[5-(2,2-difluorocyclopropyl)-4,4′-difluoro[1,1′-biphenyl]-3-yl]-3-[(1-ethyl-1H-pyrazol-4-yl)methyl]-1,3-dihydro-2H-imidazol-2-one] was tested, and the “Inhibition Rate at 30 μM” value (30 µM) was 102%.

With `CCn1cc(Cn2ccn(-c3cc(N4CCOC(C)(C)C4)cc(Br)c3F)c2=O)cn1` [Example 146, 1-[3-bromo-5-(2,2-dimethylmorpholin-4-yl)-2-fluorophenyl]-3-[(1-ethyl-1H-pyrazol-4-yl)methyl]-1,3-dihydro-2H-imidazol-2-one] the inhibition at 30 µM was 103%.

In the case of `CCn1cc(Cn2cc(C)n(-c3cc(C4CC4)cc(N4CCOC(C)(C)C4)c3)c2=O)cn1` [Example 147, 3-[3-cyclopropyl-5-(2,2-dimethylmorpholin-4-yl)phenyl]-1-[(1-ethyl-1H-pyrazol-4-yl)methyl]-4-methyl-1,3-dihydro-2H-imidazol-2-one], the inhibition at 30 µM is reported as 100%.

`Cc1cn(Cc2cnn(C(C)C)c2)c(=O)n1-c1cc(C(F)(F)F)cc(OC[C@@H]2CCCO2)n1` [Example 148, 4-methyl-3-[6-{[(2S)-oxolan-2-yl]methoxy}-4-(trifluoromethyl)pyridin-2-yl]-1-{[1-(propan-2-yl)-1H-pyrazol-4-yl]methyl}-1,3-dihydro-2H-imidazol-2-one] was tested, and the inhibition at 30 µM was 101%.

Work on `CCn1cc(Cn2cc(C)n(-c3cc(C(F)(F)F)c(F)c(N4CCO[C@H](C)C4)n3)c2=O)cn1` [Example 149, 1-[(1-ethyl-1H-pyrazol-4-yl)methyl]-3-{5-fluoro-6-[(2R)-2-methylmorpholin-4-yl]-4-(trifluoromethyl)pyridin-2-yl}-4-methyl-1,3-dihydro-2H-imidazol-2-one] yielded an inhibition at 30 µM of 101%.

Work on `CCn1cc(Cn2c(C)c(C)n(-c3cc(C(F)(F)F)c(F)c(N4CCO[C@H](C)C4)n3)c2=O)cn1` [Example 150, 1-[(1-ethyl-1H-pyrazol-4-yl)methyl]-3-{5-fluoro-6-[(2R)-2-methylmorpholin-4-yl]-4-(trifluoromethyl)pyridin-2-yl}-4,5-dimethyl-1,3-dihydro-2H-imidazol-2-one] yielded an inhibition at 30 µM of 101%.

`CCn1cc(Cn2cnn(-c3cc(OCC4CC(F)(F)C4)cc(C(F)(F)F)c3F)c2=O)cn1` [Example 151, 2-{5-[(3,3-difluorocyclobutyl)methoxy]-2-fluoro-3-(trifluoromethyl)phenyl}-4-[(1-ethyl-1H-pyrazol-4-yl)methyl]-2,4-dihydro-3H-1,2,4-triazol-3-one] showed an inhibition at 30 µM of 98%.

`CCn1cc(Cn2ccn(-c3cc(N4CCC(F)(F)CC4)cc(N4CCC(F)(F)CC4)c3F)c2=O)cn1` [Example 152, 1-[3,5-bis(4,4-difluoropiperidin-1-yl)-2-fluorophenyl]-3-[(1-ethyl-1H-pyrazol-4-yl)methyl]-1,3-dihydro-2H-imidazol-2-one] gave an inhibition at 30 µM of 98%.

`CCn1cc(Cn2ccn(-c3cc(N4CCO[C@H](C)C4)cc(OC(F)(F)F)c3F)c2=O)cn1` [Example 153, 1-[(1-ethyl-1H-pyrazol-4-yl)methyl]-3-{2-fluoro-5-[(2R)-2-methylmorpholin-4-yl]-3-(trifluoromethoxy)phenyl}-1,3-dihydro-2H-imidazol-2-one] gave an inhibition at 30 µM of 100%.

`CCn1cc(Cn2c(C)nn(-c3cc(C(F)(F)F)c(F)c(N4CCC(F)(F)CC4)n3)c2=O)cn1` [Example 154, 2-[6-(4,4-difluoropiperidin-1-yl)-5-fluoro-4-(trifluoromethyl)pyridin-2-yl]-4-[(1-ethyl-1H-pyrazol-4-yl)methyl]-5-methyl-2,4-dihydro-3H-1,2,4-triazol-3-one] gave an inhibition at 30 µM of 98%.

`CCn1cc(Cn2c(Cl)nn(-c3cc(N4CCO[C@H](C)C4)cc(C(F)(F)F)c3F)c2=O)cn1` [Example 155, 5-chloro-4-[(1-ethyl-1H-pyrazol-4-yl)methyl]-2-{2-fluoro-5-[(2R)-2-methylmorpholin-4-yl]-3-(trifluoromethyl)phenyl}-2,4-dihydro-3H-1,2,4-triazol-3-one] was tested, and the inhibition at 30 µM was 101%.

Work on `CCn1cc(Cn2ccn(-c3cc(N4CCC(F)(F)CC4)cc(C4CC4(F)F)c3F)c2=O)cn1` (centres unmarked) [Example 156, 1-[3-(2,2-difluorocyclopropyl)-5-(4,4-difluoropiperidin-1-yl)-2-fluorophenyl]-3-[(1-ethyl-1H-pyrazol-4-yl)methyl]-1,3-dihydro-2H-imidazol-2-one] yielded an inhibition at 30 µM of 98%.

`CCc1cn(Cc2cnn(CC)c2)c(=O)n1-c1cc(C(F)(F)F)cc(N2CCO[C@H](C)C2)n1` [Example 157, 4-ethyl-1-[(1-ethyl-1H-pyrazol-4-yl)methyl]-3-{6-[(2R)-2-methylmorpholin-4-yl]-4-(trifluoromethyl)pyridin-2-yl}-1,3-dihydro-2H-imidazol-2-one] was tested, and the inhibition at 30 µM was 101%.

`CCn1cc(Cn2ccn(-c3cc(N4CCC(F)(F)CC4)cc(C4CC4(F)F)c3F)c2=O)cn1` (centres unmarked) [Example 158, 1-[3-(2,2-difluorocyclopropyl)-5-(4,4-difluoropiperidin-1-yl)-2-fluorophenyl]-3-[(1-ethyl-1H-pyrazol-4-yl)methyl]-1,3-dihydro-2H-imidazol-2-one] was tested, and the “Inhibition Rate at 30 μM” value was 98%.

For `Cc1nn(-c2cc(N3CCO[C@H](C)C3)cc(OC(F)(F)F)c2F)c(=O)n1Cc1cnn(C(C)C)c1` [Example 159, 2-{2-fluoro-5-[(2R)-2-methylmorpholin-4-yl]-3-(trifluoromethoxy)phenyl}-5-methyl-4-{[1-(propan-2-yl)-1H-pyrazol-4-yl]methyl}-2,4-dihydro-3H-1,2,4-triazol-3-one], the inhibition at 30 µM was 99%.

In the case of `CCn1cc(Cn2cc(C)n(-c3cc(C4CC4)c(F)c(N4CCO[C@H](C)C4)c3)c2=O)cn1` [Example 160, 3-{3-cyclopropyl-4-fluoro-5-[(2R)-2-methylmorpholin-4-yl]phenyl}-1-[(1-ethyl-1H-pyrazol-4-yl)methyl]-4-methyl-1,3-dihydro-2H-imidazol-2-one], the inhibition at 30 µM is reported as 98%.

With `CCn1cc(Cn2c(C)nn(-c3cc(N4CCC(F)(F)CC4)cc(C(F)(F)F)c3C)c2=O)cn1` [Example 161, 2-[5-(4,4-difluoropiperidin-1-yl)-2-methyl-3-(trifluoromethyl)phenyl]-4-[(1-ethyl-1H-pyrazol-4-yl)methyl]-5-methyl-2,4-dihydro-3H-1,2,4-triazol-3-one] the inhibition at 30 µM was 100%.

For `CCn1cc(Cn2c(C)c(C)n(-c3cc(C4CC4)cc(N4CCO[C@H](C)C4)n3)c2=O)cn1` [Example 162, 1-{4-cyclopropyl-6-[(2R)-2-methylmorpholin-4-yl]pyridin-2-yl}-3-[(1-ethyl-1H-pyrazol-4-yl)methyl]-4,5-dimethyl-1,3-dihydro-2H-imidazol-2-one], the inhibition at 30 µM was 101%.

`CCn1cc(Cn2c(C)c(C)n(-c3cccc(N4CCO[C@H](C)C4)n3)c2=O)cn1` [Example 163, 1-[(1-ethyl-1H-pyrazol-4-yl)methyl]-4,5-dimethyl-3-{6-[(2R)-2-methylmorpholin-4-yl]pyridin-2-yl}-1,3-dihydro-2H-imidazol-2-one] showed an inhibition at 30 µM of 96%.

In the case of `CCn1cc(Cn2c(C)cn(-c3cc(N4CCOC(C)(C)C4)cc(C4CC4)c3F)c2=O)cn1` [Example 164, 1-[3-cyclopropyl-5-(2,2-dimethylmorpholin-4-yl)-2-fluorophenyl]-3-[(1-ethyl-1H-pyrazol-4-yl)methyl]-4-methyl-1,3-dihydro-2H-imidazol-2-one], the inhibition at 30 µM is reported as 97%.

With `CCn1cc(Cn2c(C)cn(-c3cc(N4CCC(F)(F)CC4)cc(C4CC4)c3F)c2=O)cn1` [Example 165, 1-[3-cyclopropyl-5-(4,4-difluoropiperidin-1-yl)-2-fluorophenyl]-3-[(1-ethyl-1H-pyrazol-4-yl)methyl]-4-methyl-1,3-dihydro-2H-imidazol-2-one] the inhibition at 30 µM was 97%.

In the case of `CCn1cc(Cn2c(C)cn(-c3cc(N4CCOC(C)(C)C4)cc(Cl)c3F)c2=O)cn1` [Example 166, 1-[3-chloro-5-(2,2-dimethylmorpholin-4-yl)-2-fluorophenyl]-3-[(1-ethyl-1H-pyrazol-4-yl)methyl]-4-methyl-1,3-dihydro-2H-imidazol-2-one], the inhibition at 30 µM is reported as 98%.

Compound `CCn1cc(Cn2c(C)cn(-c3cc(N4CCC(F)(F)CC4)cc(Cl)c3F)c2=O)cn1` [Example 167, 1-[3-chloro-5-(4,4-difluoropiperidin-1-yl)-2-fluorophenyl]-3-[(1-ethyl-1H-pyrazol-4-yl)methyl]-4-methyl-1,3-dihydro-2H-imidazol-2-one] has an inhibition at 30 µM of 97%.

From patent publication US12630534B2 (TAKEDA PHARMACEUTICAL COMPANY LIMITED, priority 2020, dated 2026)
